Legend:
[1] = test system: Carrageenan-induced Paw Edema in rats; assay: Carrageenan-induced paw edema test; type: in vivo, Wistar-Imamichi rats; details: Rattus norvegicus, oral, 3 hours after carrageenan, read-out: Inhibition Rate (%)
Description: The same test compounds were subjected to the test as those in the Randall-Selitto test of Experiment 3. Wistar-Imamichi rats (males, 6 week old, body weights: 110-120 g) were used in this test.
The method of Winter, et al. [Proc. Soc. Exp. Biol. Med. 111, 544-547, (1962)] was slightly modified to perform the test [Sankyo Annual Research Report 39, 77-111, (1989)]. The rats were fasted for 16 hours prior to use. Inflammatory edema was induced by the subcutaneous injection of 0.05 ml of a 1% carrageenan (Viscarin 402) solution into the right hind paw of the animal. The test compounds were administered orally 30 minutes before injection of carrageenan. The volume of the right hind foot was measured with a Plethysmometer (Trade mark) (Ugo-Basile Co.) just before administration of the test compound and 3 hours after injection of carrageenan to determine the edema intensity [(right foot volume after 3 hours/right foot volume before injection)-1].

[2] = test system: IL-1β production in human peripheral monocytes; assay: Inhibitory effect on IL-1β production in LPS-stimulated human peripheral monocytes; type: cell-based; details: Monocyte, LPS 10 μg/ml, 20 hours
Description: (§1) (1) Peripheral blood was collected from healthy human volunteers in the presence of heparin. After mixing it with an equal volume of phosphate-buffered saline (PBS, Nissui Pharmaceutical), the mixture was layered onto Ficoll Paque medium (Pharmacia) at the rate of 2:1 and centrifuged at 520×g at 25° C. for 20 minutes. After centrifugation, the monocyte layer was removed and suspended in RPMI 1640 (Nissui Pharmaceutical) containing 10% fetal calf serum (FCS). The monocytes were washed once with the same medium, placed in a plastic Petri dish, pre-treated with human plasma and incubated for 2 hours in the presence of 5% CO2 to cause them to adhere to the dish. After incubation, the Petri dish was washed twice with PBS to remove the non-adherent cells. Thereafter, PBS containing 5% FCS and 0.2% EDTA was added to the Petri dish and the dish was allowed to stand undisturbed for 15 minutes at 4° C. The monocytes were recovered from the dish by pipetting. The cells were finally suspended in RPMI 1640 at a concentration of 1.25×10^5 cells/ml. (2) Culture of Human Monocytes
(§2) A 40 μl solution of the test compound and 40 μl of lipopolysaccharide (LPS; E. coli, 0.26:B6, Difco), adjusted to a final concentration of 10 μg/ml, were added to 320 μl of cell suspension. The resulting mixture was then cultured for 20 hours in the presence of 5% CO2 and the supernatant was removed at the end of cultivation to assay IL-1β and TNFα. The test compound was dissolved in dimethyl sulfoxide and diluted by a factor of 100 with FCS to reach 10 times the final concentration (the final concentrations of dimethyl sulfoxide and FCS were 0.1% and 10%, respectively).
(§3) The amount of IL-1β was measured with a commercially available ELISA kit (Cayman), after diluting the supernatant medium by a factor of 15 or 30 with the ELISA buffer. The amount of TNFα was similarly measured by a ELISA kit (Genzyme) after diluting the supernatant by a factor of 2.
(§4) The IC50 was calculated from the regression line determined by the inhibition rates and the concentrations of the test compound.

[3] = test system: yeast-inflamed pain in rats; assay: Analgesic effect on yeast-inflamed pain in rats (Randall-Selitto method); type: in vivo, Wistar-Imamichi rats; details: Rattus norvegicus, oral, pain threshold 0.5, 1 and 2 hours after administration, read-out: Efficacy Rate (No. of animals in which drug was effective/No. of animals used in test) (converted)
Description: The compound was suspended in 0.5%tragacanth and administered orally at a volume of 5 ml/kg. The control group was administered with 0.5% tragacanth only as a vehicle.
Wistar-Imamichi rats (males, 5 week old, body weights: 80-100 g) were used in this test.
The test was conducted in accordance with the method of Winter and Flataker [J. Pharmacol. Exp. Ther. 150, 165-171, (1965)], which is a modification of the original method of Randall and Selitto [Arch. Int. Pharmacodyn. Ther. 111, 405-419, (1957)]. The rats were fasted for 16 hours prior to use. Inflammation was induced by subcutaneous injection of 0.1 ml of a suspension of 20% beer yeast (Sigma) into the right hind footpad of the animal. After 4.5 hours, increasing pressure was applied to the inflamed footpad at a constant speed using an Analgesy meter (Trade mark) (Ugo-Basile Co.).
First the average of pain threshold values at each time point (0.5, 1, and 2 hr) was calculated in a control group. If a pain threshold value exceeded 2 times the control average value at the same time point even once in the drug-treated groups, then the animal was considered to indicate efficacy. Efficacy rates of the drug were estimated by the evaluation method of Blake [J. Pharm. Pharm. 19, 367-373, (1967)].

[4] = test system: TNFα production in human peripheral monocytes; assay: Inhibitory effect on TNFα production in LPS-stimulated human peripheral monocytes; type: cell-based; details: Monocyte, LPS 10 μg/ml, 20 hours
Description: as §1, §2, §3, §4

[5] = test system: scald-induced Pain in rats; assay: Scald-induced pain test; type: in vivo, Wistar-Imamichi rats; details: oral; pain response time, mean of 1 and 2 hours after dosing
Description: The test was conducted in accordance with the method of Iizuka and Tanaka [Jpn. J. Pharmacol. 70, 697, (1967)]. The test compound was administered in the same manner as in Experiment 3. Male Wistar-Imamichi rats (4-5 week old, body weights: approximately 100 g) were used after fasting for 16 hours. The right hind foot of the animal was immersed in hot water at 57° C. for 6 seconds to induce scald under ether-anesthesia. Two hours later, the scald foot of the rat was irritated by immersing in hot water at 40° C. for 5 seconds, and the animal was returned to the cage. […] Lifting up the scalded foot or licking it without coming in contact with the metal cage were considered to be pain responses. Pain response time was determined as the total time of the pain response during the 30-second observation period. […] Pain response time was again measured 1 and 2 hours after dosing and the mean value was determined. Using the mean values, inhibition rates were calculated relative to the control group. ID50 was calculated from the regression line determined by the inhibition rates and the doses.

[6] = test system: gastric mucosa; assay: Irritative effect on gastric mucosa; type: in vivo, Wistar rats; details: oral; dose producing 50% incidence of gastric ulcers, 3.5 hours after dosing
Description: Experiments were performed according to the method described by Jahn and Adrian [Arzneim.-Forsch. 19, 36, (1969)]. Male Wistar rats weighing approximately 120 g were fasted for 16 hours before the experiment. The drugs were administered orally to rats as described in Experiment 3. Three and the half hours after dosing, the animals were killed under ether-anesthesia and the stomachs were placed into 1% of formalin. The stomach was opened by cutting along the greater curvature and the number and length of lesions were counted under a microscope (6.3×10). The ulcerogenicity in each animal was assessed according to Hitchens et. al. [Pharmacologist 9, 242, (1967)]. Incidence was determined as the rate of rats with 4 or more ulcers of more than 0.5 mm length, and UD50's (doses producing 50% incidence) were calculated from the incidence and the dose by probit (=probability unit) method.

[7] = test system: yeast-induced fever; assay: Antipyretic effect on yeast-induced fever; type: in vivo, Wistar-Imamichi rats; details: Dose: 0.4 mg/kg, oral; mean of 1 and 2 hours after dosing
Description: The method of Roszkowski et al. [J. Pharmacol. Exp. Ther. 179, 114, (1971)] was slightly modified to perform the test. The test compound was administered in the same manner as in Experiment 3. Male Wistar-Imamichi rats (6 week old, body weights: approximately 120 g) were used in the test. Yeast (Brewer's yeast, Sigma) was suspended in physiological saline to a concentration of 25%, finely crushed in an agate mortar, and injected subcutaneously into the backs of the rats under ether-anesthesia at a volume of 2 ml/rat. The rats were fasted after the injection of yeast. On the following day (19 hours after the yeast injection), a catheter-type thermistor thermometer (Japan Koden, MGA III) was inserted approximately 5 cm into the rectum to measure the temperature of the animals. […] Rectal temperatures were measured 1 and 2 hours after administration of the test compound, and fever temperature was calculated by subtracting the normal temperature of healthy animals measured simultaneously. Inhibition rate of the group treated with the compound relative to the control group was calculated by using the mean value at 1 and 2 hours after dosing.

[8] = test system: LTB4 production from human peripheral monocytes; assay: Inhibitory effect on LTB4 production from human peripheral monocytes; type: cell-based; details: Monocyte, LTB4 in culture supernatant, ELISA
Description: The isolation of monocytes was carried out as described in Experiment 2-(1).
The cell culture was carried out as described in Experiment 2-(2).
The supernatant of the culture medium after incubation was subjected to the ELISA assay (Cayman). IC50 values were calculated by the least square method from the regression line determined by the inhibition rates and the doses.

Row | Compound | inhibition in vivo at 50 mg/kg [1] [%] | responders at 12.5 mg/kg [3] [%] | inhibition at 10 µM [4] [%] | other results
1 | CS(=O)(=O)c1ccc(-c2cccn2-c2ccc(F)cc2F)cc1 [Example 7, 1-(2,4-Difluorophenyl)-2-(4-methylsulfonylphenyl) pyrrole] | 56 | 100 | – | inhibition at 10 µM [2]: 42.6%
2 | CS(=O)(=O)c1ccc(-c2ccc(F)n2-c2ccc(F)cc2)cc1 [Example 41, 5-Fluoro-1-(4-fluorophenyl)-2-(4-methylsulfonylphenyl)pyrrole] | 60 | – | – | inhibition at 10 µM [2]: 51.2%
3 | CS(=O)(=O)c1ccc(-c2ccc(C(F)(F)F)n2-c2ccc(F)cc2)cc1 [Example 44, 5-Trifluoromethyl-1-(4-fluorophenyl)-2-(4-methylsulfonylphenyl)pyrrole] | – | – | – | melting point: 136 to 139 °C
4 | CS(=O)(=O)c1ccc(-c2cc(C(F)F)cn2-c2ccc(F)cc2)cc1 [Example 49, 1-(4-Fluorophenyl)-4-difluoromethyl-2-(4-methylsulfonylphenyl)pyrrole] | – | – | 40.9 | –
5 | COc1ccc(-n2cccc2-c2ccc(S(C)(=O)=O)cc2)cc1F [Example 54, 1-(3-Fluoro-4-methoxyphenyl)-2-(4-methylsulfonylphenyl)pyrrole] | – | – | 54.7 | –
6 | CCOc1ccc(-c2cc(C)cn2-c2ccc(S(N)(=O)=O)cc2)cc1 [Example 67, 2-(4-Ethoxyphenyl)-4-methyl-1-(4-sulfamoylphenyl) pyrrole] | 64 | 100 | – | ID50 [5]: 1.6 mg/kg; UD50 [6]: >100 mg/kg; Inhibition Rate (%) [7]: 78%
7 | CCCOc1ccc(-c2cc(C)cn2-c2ccc(S(N)(=O)=O)cc2)cc1 [Example 68, 4-Methyl-2-(4-propoxyphenyl)-1-(4-sulfamoylphenyl)pyrrole] | – | – | 42.6 | –
8 | Cc1cc(-c2ccc(C)c(C)c2)n(-c2ccc(S(N)(=O)=O)cc2)c1 [Example 78, 4-Methyl-2-(3,4-dimethylphenyl)-1-(4-sulfamoylphenyl)pyrrole] | 66 | 100 | – | IC50 [8]: 310 nM; UD50 [6]: >100 mg/kg
9 | COc1ccc(-c2cc(Cc3ccc(OC)c(OC4CCCC4)c3)cn2-c2ccc(S(N)(=O)=O)cc2)cc1 [Example 81, 4-(3-Cyclopentyloxy-4-methoxybenzyl)-2-(4-methoxyphenyl)-1-(4-sulfamoylphenyl)pyrrole] | – | – | 46.1 | –
10 | CSc1ccc(-n2cc(C)cc2-c2ccc(S(N)(=O)=O)cc2)cc1 [Example 84, 4-Methyl-1-(4-methylthiophenyl)-2-(4-sulfamoylphenyl)pyrrole] | 66 | 100 | – | UD50 [6]: >100 mg/kg; Inhibition Rate (%) [7]: 64%
11 | CSc1ccc(-n2c(C)ccc2-c2ccc(S(N)(=O)=O)cc2)cc1 [Example 90, 5-Methyl-1-(4-methylthiophenyl)-2-(4-sulfamoylphenyl)pyrrole] | 64 | – | – | inhibition at 10 µM [2]: 62.2%

Source: USRE39420E1, “1,2-Diphenylpyrrole derivatives, their preparation and their therapeutic uses” (Sankyo Company, Limited, priority 1996, dated 2006)
